Reference: PMC5923142, “Selection and Characterization of Rupintrivir-Resistant Norwalk Virus Replicon Cells In Vitro” (Antimicrobial Agents and Chemotherapy, 2018)

System: recombinant MNV I109V mutant
Assay: Antiviral effect against recombinant MNV I109V mutant infection of BV-2 cells (TCID50)
Type: cell-based, murine norovirus
Conditions: MOIs 0.1 and 1
Protocol: BV-2 cells were infected with recombinant WT MNV or the MNV I109V mutant at an MOI of 0.1 or 1 for 1 h in the CO2 incubator at 37°C. After incubation, the supernatant was removed and the cells were washed twice with PBS, and then complete DMEM containing various concentrations of rupintrivir or 2CMC was added to the cells. After 24 h for incubation, the virus titers of the supernatant were determined by measurement of the TCID50. On the basis of the TCID50, the 90% effective concentration (EC90) values of rupintrivir and 2CMC were calculated using XLfit (version 5.3) software.

With `C[C@@]1(O)[C@H](O)[C@@H](CO)O[C@H]1n1ccc(N)nc1=O` [2CMC, 2-C-methylcytidine] as the molecule, how does the “difference in EC90 values between I109V and WT viruses” value read?
Its value is “no significant difference”.
